Key:
hair growth = conditions: shaved mice; cited from earlier work
[1] = target: T1, FK506 binding protein 4 (“FKBP52”) (Homo sapiens, UniProt Q02790); conditions: cited from earlier work
T1 sequence (Q02790 1-459): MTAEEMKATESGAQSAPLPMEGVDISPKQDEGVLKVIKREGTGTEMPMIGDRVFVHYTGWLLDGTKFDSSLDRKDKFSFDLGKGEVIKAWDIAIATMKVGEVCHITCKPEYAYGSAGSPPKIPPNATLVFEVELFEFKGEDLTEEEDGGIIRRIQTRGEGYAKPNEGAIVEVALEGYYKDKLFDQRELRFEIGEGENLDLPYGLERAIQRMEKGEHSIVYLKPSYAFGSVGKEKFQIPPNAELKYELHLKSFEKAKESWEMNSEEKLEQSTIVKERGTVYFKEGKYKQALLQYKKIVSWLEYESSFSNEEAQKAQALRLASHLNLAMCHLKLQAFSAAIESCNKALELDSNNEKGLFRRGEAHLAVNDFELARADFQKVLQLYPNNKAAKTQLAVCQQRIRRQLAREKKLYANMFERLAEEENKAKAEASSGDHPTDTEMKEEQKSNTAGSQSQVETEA

androgenic alopecia = assay: person with androgenic alopecia treated topically with RT175 and RT175/minoxidil; assay type: in vivo, human; conditions: 4 months; 120 ng/mL RT175, 1 mL twice daily on crown
Description: The subject went on treatment holiday for 1 month, before beginning treatment with 120 ng/mL of RT175 and 5% w/v minoxidil in 30% w/v ethanol, 50% w/v propylene glycol and 20% w/v water. FIG. 4(c) depicts the subjects scalp before initiation of the second round of treatment.

mouse dorsal skin = assay: Punch biopsies of mouse dorsal skin treated topically with RT175; assay type: in vivo, mice
Description: Mice underwent 5 millimeter, full thickness, punch biopsies of their dorsal skin. Mice were then treated topically with 120 nanograms (“ng”) of RT175, daily.

skin lesions = assay: Skin lesions in pig treated topically with RT175; assay type: in vivo; conditions: single pig, 120 ng topically daily
Description: A single pig underwent bilateral, slit thickness, skin surgery leaving lesions on opposite sides of the pig. One of these lesions was then treated topically with 120 ng of RT175, daily. The other lesion was treated with vehicle only. […] See FIG. 3 and compare 3(b) to 3(a). The de novo hair growth is consistent with the regeneration of the upper hair follicles, most of which would have been removed as the […] sliced through the skin in creating the split thickness wounds.

hair = conditions: rats after craniotomy prior to neurosurgery; cited from earlier work
scalp = assay: Scalp closure following craniotomy in rats treated with RT175; assay type: in vivo; conditions: RT175 treatment
Excerpt: Rats which had undergone brain surgery to test RT175 mediated regeneration of the brain following stroke. Following surgery, the scalp was closed.

FKBP52 = target: T2, FKBP52 (Homo sapiens, UniProt Q02790); conditions: fibroblasts treated for 2 hours; cited from earlier work
T2 construct: endogenous in cells
T2 sequence (Q02790 1-459): T1 sequence (Q02790 1-459)

[2] = tested on: dermabrasion lesions of dorsal skin; assay: Dermabrasion lesions of dorsal skin of mice treated with RT1061; assay type: in vivo, ICR mice; conditions: 5 μL of 100 nanomolar topically once daily, 10 days
Description: Retired ICR breeder mice of both sexes with weight between 45 and 50 grams were shaved and rasped to induce dermabrasion lesions. The animals were then randomly assigned (5 per treatment arm) to one of two groups to receive either 5 μL of 100 nanomolar RT1061 or a vehicle control. RT1061 or vehicle control was applied topically to the lesion site once each day including immediately after dermabrasion.

androgenetic alopecia = conditions: at 6-months, cited from earlier work

CCC(C)(C)C(=O)C(=O)N1CCC[C@H]1C(=O)O [RT175]
hair growth (hair growth): induce hair growth | binding affinity [1]: high affinity | hair growth (androgenic alopecia): absence of hair growth | healing of the wound site versus vehicle (mouse dorsal skin; 5 days after punch biopsy, 120 ng RT175 topically daily): clearly accelerated | treated wounds completely closed (mouse dorsal skin; 9 days after punch biopsy, 120 ng topically daily): 80% | hair regeneration in the wound (mouse dorsal skin; 9 days after punch biopsy, intact follicles even in the middle of the wound): robust hair regeneration | time for the other 20% of treated wounds to close (mouse dorsal skin; after day 9, 120 ng topically daily): ≤ 18 h | hair regeneration in the lesion (skin lesions): regeneration of hair | lesion healing versus vehicle-treated lesion (skin lesions): early and transient appearance of granulation tissue, followed by rapid revascularization, invasion of newly formed skin from wound edges, accelerated repigmentation | hair regrowth (hair): re-grow hair | scalp closure after brain surgery (scalp): full scalp closure | FKBP52 localisation (FKBP52): translocation of FKBP52 to the nucleus

CCC(C)(C)C(=O)C(=O)N1CCCC1Cc1ccccc1 (stereo not shown) [RT1061]
hair growth [2]: rapid hair growth | skin regeneration [2]: rapid regeneration of rasped skin

Nc1cc(N2CCCCC2)nc(N)[n+]1[O-] [minoxidil]
treated individuals who maintained existing hair with no additional loss (androgenetic alopecia): 50% | treated individuals with new hair growth (androgenetic alopecia; minoxidil treatment): 15%

— patent publication US10285977B2, “Compositions and methods for treating alopecia” (David Weinstein Consulting, Inc., priority 2015, dated 2019)
